According to patent publication EP0457243A1, “Novel tricyclic compounds” (priority 1990, dated 1991):
Where two headings read alike, the source gives them in different places.

Legend:
BKW mice = settings: 1 µ/g/kg i.p.
Description: Anxiolytic activity during withdrawal from drugs of abuse is determined by the mouse light/dark withdrawal anxiety test. This procedure utilizes the exploratory model described above to test for anxiolytic activity after administration and subsequent abrupt cessation of diazepam, alcohol, cocaine or nicotine treatments. A detailed description is set for in Example 13 of this application.
The following procedure describes a method to determine whether compounds of Formula I effect the anxiety that occurs after abruptly ceasing chronic treatment with drugs of abuse.
(§1) Naive male BKW mice (25-30 g) are caged in groups of ten in quarters controlled for sound, temperature and humidity. Food and water are available ad libitum. The mice are kept on a 12 hour light cycle and 12 hour dark cycle, with lights on at 6:00 a.m. and off at 6:00 p.m. All experiments begin at least 7 days after arrival on site.
Levels of anxiety are determined by the two-compartment exploratory model of Crawley and Goodwin (see Example 12). Anxiolysis is seen as a general increase in exploratory activity in the lighted area. An increase in exploratory activity is relected by increased latency (the time for the mouse to move to the dark chamber when first placed in the center of the lighted area), increased or unaltered locomotor activity (number of grid lines crossed), increased number of rears and decreased time spent in the dark compartment.
Increased exploratory activity in the lighted area is induced by treating the mice for 14 days with alcohol (8.0 % w/v in drinking water), nicotine (0.1 mg/kg, i.p., twice daily), diazepam (10 mg/kg, i.p., twice daily), or cocaine (1.0 mg/kg, i.p., twice daily). Anxiolysis is assessed 1, 3, 7 and 14 days after commencement of the drug regime. The treatment is abruptly ceased and exploratory activity in the lighted area is determined 8, 24 and 48 hours thereafter. Vehicle or test compounds are administered during the withdrawl phase by intraperitoneal injection. Responses are represented as inhibition of the decrease in anxiolytic behavior after the alcohol, cocaine or nicotine treatment is ceased.

C5BI/6J mice = assay: Mouse anxiolytic behavior model (two-compartment exploratory model); format: in vivo; parameters: % ACTIVITY DARK AREA W% / SHUTTLE ACTIVITY W% / LOCOMOTOR ACTIVITY (LIGHT AREA) W% / % ACTIVITY DARK AREA Mean ± SD: concentration or dose not given beside the values; settings: for % ACTIVITY DARK AREA Mean ± SD / LATENCY (SEC) Mean ± SD / LOCOMOTOR ACTIVITY (LIGHT AREA) Mean ± SD / SHUTTLE ACTIVITY Mean ± SD / TIME DARK AREA (SEC) Mean ± SD: i.p., 15 min post-treatment, monitored for 10 minutes; for % ACTIVITY DARK AREA W% / LATENCY (SEC) W% / LOCOMOTOR ACTIVITY (LIGHT AREA) W% / SHUTTLE ACTIVITY W% / TIME DARK AREA (SEC) W%: percentage change from control
Description: In brief, the method involves determining whether a compound reduces the natural anxiety of mice in brightly-lit areas.
The following describes an in vivo method for determining anxiolytic activity of compounds of Formula I.
as §1, with “C5BI/6J mice, 18-20 g,” for “BKW mice (25-30 g)”, “kept” for “caged”, “10 mice” for “ten”, “light” for “light cycle”
Briefly, the chamber consists of a plexiglass box (44 x 21 x 21 cm), divided into two chambers by a black plexiglass partition. The partition dividing the two chambers contains a 13 x 5 cm opening through which the mouse can easily pass. The dark chamber has […]. A fluorescent tube light (40 watt) placed above the chambers provides the only illumination. The Digiscan Animal Activity Monitor System RXYZCM16 (Omni-Tech Electronics) records the exploratory activity of the mice within the test chambers.
Prior to commencement of the study the mice are given 60 min to acclimatize to the laboratory environment. After a mouse receives an intraperitoneal (i.p.) injection of either test compound or vehicle it is returned to its home cage for a 15 min post-treatment period. The mouse is then placed in the center of the light chamber and monitored for 10 minutes.
Anxiolysis is seen as a general increase in exploratory activity in the lighted area. An increase in exploratory activity is relected by increased latency (the time for the mouse to move to the dark chamber when first placed in the center of the lighted area), increase in shuttle activity, increased or unaltered locomotor activity (number of grid lines crossed) and decreased time spent in the dark compartment.

[1] = Toxicity observation after i.p. administration; format: in vivo; settings: 10 mg/kg, over 90 minutes

Row | SMILES | % ACTIVITY DARK AREA Mean ± SD (C5BI/6J mice) [%] | LATENCY (SEC) Mean ± SD (C5BI/6J mice) [s] | LOCOMOTOR ACTIVITY (LIGHT AREA) Mean ± SD (C5BI/6J mice) | SHUTTLE ACTIVITY Mean ± SD (C5BI/6J mice) | TIME DARK AREA (SEC) Mean ± SD (C5BI/6J mice) [s] | % ACTIVITY DARK AREA W% (C5BI/6J mice) [%] | LATENCY (SEC) W% (C5BI/6J mice) [%] | LOCOMOTOR ACTIVITY (LIGHT AREA) W% (C5BI/6J mice) [%] | SHUTTLE ACTIVITY W% (C5BI/6J mice) [%] | TIME DARK AREA (SEC) W% (C5BI/6J mice) [%] | unusual effects observed [1] | further results
1 | Cl.Nc1c(Cl)cc2c3c(cccc13)C(=O)N([C@@H]1CN3CCC1CC3)C2=O [(1), S-6-amino-5-chloro-2-(1-azabicyclo[2.2.2]oct-3-yl)-2,3-dihydro-1H-benz[de]isoquinoline-1,3-dione hydrochloride] | 37.6 ± 4.9 | 3.5 ± 0.5 | 1208.0 ± 86.4 | 42.0 ± 3.9 | 394.9 ± 32.8 | -54.0 | -28.6 | 41.0 | 37.3 | -26.9 |  | Crossings/ 5 Min in Light (BKW mice; alcohol withdrawal): 88.0±9.0; Latency (BKW mice; alcohol withdrawal): 9.0 ± 1.3 s; Rears/5 Min in Light (BKW mice; alcohol withdrawal): 86.0±9.0; Time in Dark (%) (BKW mice; alcohol withdrawal): 60.0±6.4%; Crossings/ 5 Min in Light (BKW mice; cocaine withdrawal): 135.±15.7; Latency (BKW mice; cocaine withdrawal): 28.7 ± 2.81 s; Rears/5 Min in Light (BKW mice; cocaine withdrawal): 101.±2.81; Time in Dark (%) (BKW mice; cocaine withdrawal): 22.5±2.4%; Crossings/ 5 Min in Light (BKW mice; diazepam withdrawal): 97.5±10.6; Latency (BKW mice; diazepam withdrawal): 34.0 ± 3.7 s; Rears/5 Min in Light (BKW mice; diazepam withdrawal): 89.2±9.1; Time in Dark (%) (BKW mice; diazepam withdrawal): 27.4±2.9%; Crossings/ 5 Min in Light (BKW mice; nicotine withdrawal): 94.0±10.1; Latency (BKW mice; nicotine withdrawal): 20.8 ± 2.4 s; Rears/5 Min in Light (BKW mice; nicotine withdrawal): 84.5±9.0; Time in Dark (%) (BKW mice; nicotine withdrawal): 29.0±3.1%
2 | Cl.Nc1cc2c3c(cccc3c1Cl)C(=O)N([C@@H]1CN3CCC1CC3)C2=O [S-6-chloro-5-amino-2-(1-azabicyclo[2.2.2]oct-3-yl)-2,3-dihydro-1H-benz[de]isoquinoline-1,3-dione hydrochloride] |  |  |  |  |  |  |  |  |  |  | No unusual effects | 
3 | Cc1nccn1CC1CCc2c(c3ccccc3n2C)C1=O (stereo not shown) [Ondansetron, reference compound] | 78.5 ± 4.7 | 6.7 ± 1.5 | 1582.0 ± 77.8 | 121.0 ± 12.4 | 499.4 ± 14.8 | -13.1 | 4.7 | 52.6 | 182.7 | -12.8 |  | 
4 | I.Nc1c(Cl)cc2c3c(cccc13)C(=O)N([C@@H]1CN3CCC1CC3)C2=O [(2), S-6-amino-5-chloro-2-(1-azabicyclo[2.2.2]oct-3-yl)-2,3-dihydro-1H-benz[de]isoquinoline-1,3-dione hydrogeniodide] | 78.4 ± 1.8 | 8.1 ± 1.4 | 1602.4 ± 73.0 | 138.6 ± 9.1 | 498.4 ± 9.3 | -10.0 | 102.5 | 42.6 | 112.3 | -10.8 |  | 
5 | Cl.Nc1cc2c3c(cccc3c1Cl)C(=O)N(C1CN3CCC1CC3)C2=O (stereo not shown) [RS-6-chloro-5-amino-2-(1-azabicyclo[2.2.2]oct-3-yl)-2,3-dihydro-1H-benz[de]isoquinoline-1,3-dione hydrochloride] |  |  |  |  |  |  |  |  |  |  | No unusual effects | 
6 | Cl.O=C1c2cccc3cccc(c23)C(=O)N1[C@@H]1CN2CCC1CC2 [S-2-(1-azabicyclo[2.2.2]oct-3-yl)-2,3-dihydro-1H-benz[de]isoquinoline-1,3-dione hydrochloride] |  |  |  |  |  |  |  |  |  |  | No unusual effects | 
